Assay results from US20230143604A1, “QW DOSING OF GIP RECEPTOR AGONIST PEPTIDE COMPOUNDS AND USES THEREOF” (TAKEDA PHARMACEUTICAL COMPANY LIMITED, priority 2020, published 2023).
Starred links: 1 amine or outer side, 2 acyl side, 3 side chain; linkers in the order of their positions; H or OH if unused. Non-standard residues stand in square brackets, D forms with d. Residues, ends and D or L forms follow the SMILES beside them. Groups on a side chain read outwards from the residue. *: point of attachment. C20 diacid = O=C(O)CCCCCCCCCCCCCCCCCCC(=O)*; C18 diacid = O=C(O)CCCCCCCCCCCCCCCCC(=O)*; C17 diacid = O=C(O)CCCCCCCCCCCCCCCC(=O)*; γGlu = O=C(O)[C@H](CCC(=O)[*:2])N[*:1]; NMeY = CN[C@@H](Cc1ccc(O)cc1)C(=O)O; AEEA = NCCOCCOCC(=O)O; Aib = CC(C)(N)C(=O)O

Test: physchem
In short: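 Solubility at pH 7.4 determined by stepwise addition of 200 mM phosphate buffer in 100 μL increments to 3 mg peptide, mixing briefly each time, until no insoluble material remained, then measured by liquid chromatography.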

[1] = pH 7.4, aqueous buffer, pH 7.4 Phosphate Buffer - Solubility, 200 mM Phosphate buffer pH 7.4
[2] = pH 7.4, solubility in phosphate buffer at pH 7.4, 200 mM phosphate buffer pH 7.4

Row | SMILES | solubility (pH 7.4) | solubility (pH 7.4, aqueous buffer) | solubility [1] | solubility [2]
1 | CC[C@H](C)[C@H](NC(=O)[C@H](Cc1ccccc1)NC(=O)[C@@H](NC(=O)CNC(=O)[C@H](CCC(=O)O)NC(=O)C(C)(C)NC(=O)[C@H](Cc1ccc(O)cc1)NC)[C@@H](C)O)C(=O)N[C@@H](CO)C(=O)N[C@@H](CC(=O)O)C(=O)N[C@@H](Cc1ccc(O)cc1)C(=O)N[C@@H](CO)C(=O)N[C@H](C(=O)NC(C)(C)C(=O)N[C@@H](CCCCNC(=O)COCCOCCNC(=O)COCCOCCNC(=O)CC[C@H](NC(=O)CC[C@H](NC(=O)CCCCCCCCCCCCCCCC(=O)O)C(=O)O)C(=O)O)C(=O)N[C@@H](CC(=O)O)C(=O)N[C@@H](CCCNC(=N)N)C(=O)NC(C)(C)C(=O)N[C@@H](C)C(=O)N[C@@H](CCC(N)=O)C(=O)NC(C)(C)C(=O)N[C@@H](CC(N)=O)C(=O)N[C@@H](Cc1ccccc1)C(=O)N[C@H](C(=O)N[C@@H](CC(N)=O)C(=O)N[C@@H](Cc1c[nH]c2ccccc12)C(=O)N[C@@H](CC(C)C)C(=O)N[C@@H](CC(C)C)C(=O)N[C@@H](C)C(=O)N[C@@H](CCC(N)=O)C(=O)N[C@@H](CCCNC(=N)N)C(=O)NCC(=O)NCC(=O)NCC(=O)NCC(=O)N[C@@H](CO)C(N)=O)C(C)C)[C@@H](C)CC [Compound 32] (H-[NMeY][Aib]EGTFISDYSI[Aib]K([AEEA-AEEA-γGlu-γGlu-C17 diacid])DR[Aib]AQ[Aib]NFVNWLLAQRGGGGS-NH2) | ≥ 15 mg/mL | ≥ 30 mg/mL |  | 
2 | CC[C@H](C)[C@H](NC(=O)[C@H](CO)NC(=O)[C@H](Cc1ccc(O)cc1)NC(=O)[C@H](CC(=O)O)NC(=O)[C@H](CO)NC(=O)[C@@H](NC(=O)[C@H](Cc1ccccc1)NC(=O)[C@@H](NC(=O)CNC(=O)[C@H](CCC(=O)O)NC(=O)C(C)(C)NC(=O)[C@H](Cc1ccc(O)cc1)NC)[C@@H](C)O)[C@@H](C)CC)C(=O)N[C@@H](C)C(=O)N[C@@H](CCCCNC(=O)CNC(=O)CNC(=O)CNC(=O)CNC(=O)CNC(=O)CCCCCCCCCCCCCCCCC(=O)O)C(=O)N[C@@H](CC(=O)O)C(=O)N[C@@H](CCCNC(=N)N)C(=O)NC(C)(C)C(=O)N[C@@H](C)C(=O)N[C@@H](CCC(N)=O)C(=O)NC(C)(C)C(=O)N[C@@H](CC(N)=O)C(=O)N[C@@H](Cc1ccccc1)C(=O)N[C@H](C(=O)N[C@@H](CC(N)=O)C(=O)N[C@@H](Cc1c[nH]c2ccccc12)C(=O)N[C@@H](CC(C)C)C(=O)N[C@@H](CC(C)C)C(=O)N[C@@H](C)C(=O)N[C@@H](CCC(N)=O)C(=O)N[C@@H](CCCNC(=N)N)C(N)=O)C(C)C [Compound 250] |  | ≥ 0.7 mg/mL |  | 
3 | CC[C@H](C)[C@H](NC(=O)[C@H](CO)NC(=O)[C@H](Cc1ccc(O)cc1)NC(=O)[C@H](CC(=O)O)NC(=O)[C@H](CO)NC(=O)[C@@H](NC(=O)[C@H](Cc1ccccc1)NC(=O)[C@@H](NC(=O)CNC(=O)[C@H](CCC(=O)O)NC(=O)C(C)(C)NC(=O)[C@H](Cc1ccc(O)cc1)NC)[C@@H](C)O)[C@@H](C)CC)C(=O)N[C@@H](C)C(=O)N[C@@H](CC(C)C)C(=O)N[C@@H](CC(=O)O)C(=O)N[C@@H](CCCNC(=N)N)C(=O)NC(C)(C)C(=O)N[C@@H](C)C(=O)N[C@@H](CCC(N)=O)C(=O)NC(C)(C)C(=O)N[C@@H](CC(=O)O)C(=O)N[C@@H](Cc1ccccc1)C(=O)N[C@H](C(=O)N[C@@H](CC(N)=O)C(=O)N[C@@H](Cc1c[nH]c2ccccc12)C(=O)N[C@@H](CC(C)C)C(=O)N[C@@H](CC(C)C)C(=O)N[C@@H](C)C(=O)N[C@@H](CCCCNC(=O)COCCOCCNC(=O)COCCOCCNC(=O)CC[C@H](NC(=O)CC[C@H](NC(=O)CCCCCCCCCCCCCCCCC(=O)O)C(=O)O)C(=O)O)C(=O)N[C@@H](CCCNC(=N)N)C(=O)N1CCC[C@H]1C(=O)N[C@@H](CO)C(=O)N[C@@H](CO)C(=O)NCC(=O)N[C@@H](C)C(=O)N1CCC[C@H]1C(=O)N1CCC[C@H]1C(=O)N1CCC[C@H]1C(=O)N[C@@H](CO)C(N)=O)C(C)C [Compound 58] (H-[NMeY][Aib]EGTFISDYSIALDR[Aib]AQ[Aib]DFVNWLLAK([AEEA-AEEA-γGlu-γGlu-C18 diacid])RPSSGAPPPS-NH2) |  |  | ≥ 30 mg/mL | ≥ 15 mg/mL
4 | CC[C@H](C)[C@H](NC(=O)[C@H](Cc1ccccc1)NC(=O)[C@@H](NC(=O)CNC(=O)[C@H](CCC(=O)O)NC(=O)C(C)(C)NC(=O)[C@H](Cc1ccc(O)cc1)NC)[C@@H](C)O)C(=O)N[C@@H](CO)C(=O)N[C@@H](CC(=O)O)C(=O)N[C@@H](Cc1ccc(O)cc1)C(=O)N[C@@H](CO)C(=O)N[C@H](C(=O)NC(C)(C)C(=O)N[C@@H](CC(C)C)C(=O)N[C@@H](CC(=O)O)C(=O)N[C@@H](CCCNC(=N)N)C(=O)NC(C)(C)C(=O)N[C@@H](C)C(=O)N[C@@H](CCC(N)=O)C(=O)NC(C)(C)C(=O)N[C@@H](CCCCNC(=O)COCCOCCNC(=O)COCCOCCNC(=O)CC[C@H](NC(=O)CC[C@H](NC(=O)CCCCCCCCCCCCCCCC(=O)O)C(=O)O)C(=O)O)C(=O)N[C@@H](Cc1ccccc1)C(=O)N[C@H](C(=O)N[C@@H](CC(N)=O)C(=O)N[C@@H](Cc1c[nH]c2ccccc12)C(=O)N[C@@H](CC(C)C)C(=O)N[C@@H](CC(C)C)C(=O)N[C@@H](C)C(=O)N[C@@H](CCC(N)=O)C(=O)N[C@@H](CO)C(=O)N1CCC[C@H]1C(=O)N[C@@H](CO)C(=O)N[C@@H](CO)C(=O)NCC(=O)N[C@@H](C)C(=O)N1CCC[C@H]1C(=O)N1CCC[C@H]1C(=O)N1CCC[C@H]1C(=O)N[C@@H](CO)C(N)=O)C(C)C)[C@@H](C)CC [Compound 94] (H-[NMeY][Aib]EGTFISDYSI[Aib]LDR[Aib]AQ[Aib]K([AEEA-AEEA-γGlu-γGlu-C17 diacid])FVNWLLAQSPSSGAPPPS-NH2) |  |  | ≥ 60 mg/mL | ≥ 15 mg/mL
5 | CC[C@H](C)[C@H](NC(=O)[C@H](CO)NC(=O)[C@H](Cc1ccc(O)cc1)NC(=O)[C@H](CC(=O)O)NC(=O)[C@H](CO)NC(=O)[C@@H](NC(=O)[C@H](Cc1ccccc1)NC(=O)[C@@H](NC(=O)CNC(=O)[C@H](CCC(=O)O)NC(=O)C(C)(C)NC(=O)[C@@H](N)Cc1ccc(O)cc1)[C@@H](C)O)[C@@H](C)CC)C(=O)N[C@@H](C)C(=O)NC(C)(C)C(=O)N[C@@H](CC(=O)O)C(=O)N[C@@H](CCCCN)C(=O)N[C@@H](C)C(=O)N[C@@H](CCCCNC(=O)COCCOCCNC(=O)COCCOCCNC(=O)CC[C@H](NC(=O)CCCCCCCCCCCCCCCCC(=O)O)C(=O)O)C(=O)N[C@@H](CCC(N)=O)C(=O)N[C@@H](C)C(=O)N[C@@H](CC(=O)O)C(=O)N[C@@H](Cc1ccccc1)C(=O)N[C@H](C(=O)N[C@@H](CCC(=O)O)C(=O)N[C@@H](Cc1c[nH]c2ccccc12)C(=O)N[C@@H](CC(C)C)C(=O)N[C@@H](CC(C)C)C(=O)N[C@@H](C)C(=O)N[C@@H](CCC(N)=O)C(=O)N[C@@H](CCCNC(=N)N)C(=O)NCC(=O)O)C(C)C [Compound 165] (H-Y[Aib]EGTFISDYSIA[Aib]DKAK([AEEA-AEEA-γGlu-C18 diacid])QADFVEWLLAQRG-OH) | ≥ 15 mg/mL | ≥ 30 mg/mL |  | 
6 | CC[C@H](C)[C@H](NC(=O)[C@H](CO)NC(=O)[C@H](Cc1ccc(O)cc1)NC(=O)[C@H](CC(=O)O)NC(=O)[C@H](CO)NC(=O)[C@@H](NC(=O)[C@H](Cc1ccccc1)NC(=O)[C@@H](NC(=O)CNC(=O)[C@H](CCC(=O)O)NC(=O)C(C)(C)NC(=O)[C@H](Cc1ccc(O)cc1)NC)[C@@H](C)O)[C@@H](C)CC)C(=O)N[C@@H](C)C(=O)N[C@@H](CC(C)C)C(=O)N[C@@H](CC(=O)O)C(=O)N[C@@H](CCCNC(=N)N)C(=O)NC(C)(C)C(=O)N[C@@H](C)C(=O)N[C@@H](CCC(N)=O)C(=O)NC(C)(C)C(=O)N[C@@H](CCCCNC(=O)COCCOCCNC(=O)COCCOCCNC(=O)CC[C@H](NC(=O)CC[C@H](NC(=O)CCCCCCCCCCCCCCCCCCC(=O)O)C(=O)O)C(=O)O)C(=O)N[C@@H](Cc1ccccc1)C(=O)N[C@H](C(=O)N[C@@H](CC(N)=O)C(=O)N[C@@H](Cc1c[nH]c2ccccc12)C(=O)N[C@@H](CC(C)C)C(=O)N[C@@H](CC(C)C)C(=O)N[C@@H](C)C(=O)N[C@@H](CCC(N)=O)C(=O)N[C@@H](CCCNC(=N)N)C(N)=O)C(C)C [Compound 272] (H-[NMeY][Aib]EGTFISDYSIALDR[Aib]AQ[Aib]K([AEEA-AEEA-γGlu-γGlu-C20 diacid])FVNWLLAQR-NH2) |  | ≥ 7.5 mg/mL |  | 
7 | CC[C@H](C)[C@H](NC(=O)[C@H](CO)NC(=O)[C@H](Cc1ccc(O)cc1)NC(=O)[C@H](CC(=O)O)NC(=O)[C@H](CO)NC(=O)[C@@H](NC(=O)[C@H](Cc1ccccc1)NC(=O)[C@@H](NC(=O)CNC(=O)[C@H](CCC(=O)O)NC(=O)C(C)(C)NC(=O)[C@@H](N)Cc1ccc(O)cc1)[C@@H](C)O)[C@@H](C)CC)C(=O)N[C@@H](C)C(=O)N[C@@H](CC(C)C)C(=O)N[C@@H](CC(=O)O)C(=O)N[C@@H](CCCCN)C(=O)NC(C)(C)C(=O)N[C@@H](C)C(=O)N[C@@H](CCC(N)=O)C(=O)N[C@@H](C)C(=O)N[C@@H](CCCCNC(=O)COCCOCCNC(=O)COCCOCCNC(=O)CC[C@H](NC(=O)CC[C@H](NC(=O)CCCCCCCCCCCCCCCC(=O)O)C(=O)O)C(=O)O)C(=O)N[C@@H](Cc1ccccc1)C(=O)N[C@H](C(=O)N[C@@H](CCC(=O)O)C(=O)N[C@@H](Cc1c[nH]c2ccccc12)C(=O)N[C@@H](CC(C)C)C(=O)N[C@@H](CC(C)C)C(=O)N[C@@H](C)C(=O)N[C@@H](CCC(N)=O)C(=O)N[C@@H](CCCNC(=N)N)C(=O)NCC(=O)O)C(C)C [Compound 131] (H-Y[Aib]EGTFISDYSIALDK[Aib]AQAK([AEEA-AEEA-γGlu-γGlu-C17 diacid])FVEWLLAQRG-OH) | ≥ 15 mg/mL | ≥ 30 mg/mL |  | 
